Measurements as given in ChEMBL document CHEMBL4507270 (2021).

Assays:
[1] = biological target: Ankyrin repeat and protein kinase domain-containing protein 1 (Homo sapiens) (UniProt Q8NFD2)
[2] = biological target: Fibroblast growth factor receptor 3 (Homo sapiens, UniProt P22607)
[3] = biological target: RAC-gamma serine/threonine-protein kinase (Homo sapiens) (UniProt Q9Y243)
[4] = biological target: Serine/threonine-protein kinase PAK 3 (Homo sapiens) (UniProt O75914)
[5] = biological target: Mitogen-activated protein kinase 14 (Homo sapiens) (UniProt Q16539)
[6] = biological target: Mitogen-activated protein kinase kinase kinase 1 (Homo sapiens) (UniProt Q13233)
[7] = biological target: Misshapen-like kinase 1 (Homo sapiens) (UniProt Q8N4C8)
[8] = biological target: Ribosomal protein S6 kinase alpha-5 (Homo sapiens) (UniProt O75582)
[9] = biological target: Serine/threonine-protein kinase STK11 (Homo sapiens) (UniProt Q15831)
[10] = biological target: Phosphorylase b kinase gamma catalytic chain, skeletal muscle/heart isoform (Homo sapiens) (UniProt Q16816)
[11] = biological target: Mitogen-activated protein kinase kinase kinase 3 (Homo sapiens) (UniProt Q99759)
[12] = biological target: Bone morphogenetic protein receptor type-2 (Homo sapiens) (UniProt Q13873)
[13] = biological target: Eukaryotic translation initiation factor 2-alpha kinase 1 (Homo sapiens) (UniProt Q9BQI3)
Chain of Eukaryotic translation initiation factor 2-alpha kinase 1 (Homo sapiens) (Q9BQI3 whole entry): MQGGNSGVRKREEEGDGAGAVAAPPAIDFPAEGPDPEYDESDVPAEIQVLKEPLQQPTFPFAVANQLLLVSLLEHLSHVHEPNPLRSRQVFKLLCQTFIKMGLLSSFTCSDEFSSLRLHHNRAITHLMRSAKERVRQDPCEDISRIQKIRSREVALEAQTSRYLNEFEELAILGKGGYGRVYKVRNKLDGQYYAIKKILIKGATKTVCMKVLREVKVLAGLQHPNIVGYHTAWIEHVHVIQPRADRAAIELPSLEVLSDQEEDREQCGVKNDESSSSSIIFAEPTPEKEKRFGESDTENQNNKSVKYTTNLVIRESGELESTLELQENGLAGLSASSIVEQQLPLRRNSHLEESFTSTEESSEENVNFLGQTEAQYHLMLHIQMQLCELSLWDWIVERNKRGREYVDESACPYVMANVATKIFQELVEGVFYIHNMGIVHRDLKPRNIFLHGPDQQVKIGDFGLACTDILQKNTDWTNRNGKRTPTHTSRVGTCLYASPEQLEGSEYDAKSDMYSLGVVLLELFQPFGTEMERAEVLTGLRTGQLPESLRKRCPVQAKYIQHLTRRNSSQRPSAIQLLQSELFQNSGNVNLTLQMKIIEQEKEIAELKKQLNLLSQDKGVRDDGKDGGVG

[14] = biological target: Alpha-2C adrenergic receptor (Homo sapiens) (UniProt P18825); conditions: Compound concentration 10.0 uM
Chain of Alpha-2C adrenergic receptor (Homo sapiens) (P18825 whole entry): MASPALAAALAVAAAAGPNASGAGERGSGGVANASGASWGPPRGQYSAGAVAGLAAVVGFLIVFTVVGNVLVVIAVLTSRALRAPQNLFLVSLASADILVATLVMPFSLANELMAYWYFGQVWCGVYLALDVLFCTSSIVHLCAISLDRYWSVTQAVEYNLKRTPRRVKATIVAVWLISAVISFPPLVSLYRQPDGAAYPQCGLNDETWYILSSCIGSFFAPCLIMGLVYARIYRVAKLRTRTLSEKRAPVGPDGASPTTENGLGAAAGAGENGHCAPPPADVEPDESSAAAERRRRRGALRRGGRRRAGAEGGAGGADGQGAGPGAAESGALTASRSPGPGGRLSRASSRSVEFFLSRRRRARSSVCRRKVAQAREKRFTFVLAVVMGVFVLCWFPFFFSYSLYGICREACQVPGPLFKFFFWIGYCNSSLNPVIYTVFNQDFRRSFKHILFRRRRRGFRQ

[15] = biological target: Tyrosine-protein kinase Fes/Fps (Homo sapiens) (UniProt P07332)
[16] = system: Epidermal growth factor receptor (Homo sapiens), P00533 [L858R]
[17] = biological target: 5-hydroxytryptamine receptor 2C (Homo sapiens) (UniProt P28335); conditions: Compound concentration 10.0 uM
Chain of 5-hydroxytryptamine receptor 2C (Homo sapiens) (P28335 whole entry): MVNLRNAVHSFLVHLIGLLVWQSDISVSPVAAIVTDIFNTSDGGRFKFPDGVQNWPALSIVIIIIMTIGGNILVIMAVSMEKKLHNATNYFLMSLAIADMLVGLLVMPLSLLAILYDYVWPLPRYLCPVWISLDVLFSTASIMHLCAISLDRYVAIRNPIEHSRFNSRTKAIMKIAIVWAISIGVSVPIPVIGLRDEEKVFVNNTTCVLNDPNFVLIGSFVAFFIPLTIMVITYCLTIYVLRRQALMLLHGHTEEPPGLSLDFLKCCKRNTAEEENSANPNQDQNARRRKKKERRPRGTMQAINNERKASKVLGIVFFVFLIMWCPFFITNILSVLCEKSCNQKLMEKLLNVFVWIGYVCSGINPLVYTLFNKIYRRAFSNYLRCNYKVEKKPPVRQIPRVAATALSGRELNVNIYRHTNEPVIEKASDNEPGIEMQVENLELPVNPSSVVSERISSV

[18] = system: Mast/stem cell growth factor receptor Kit (Homo sapiens), P10721 [V559D,V654A]
[19] = biological target: TGF-beta receptor type-1 (Homo sapiens) (UniProt P36897)
[20] = biological target: Mitogen-activated protein kinase kinase kinase kinase 1 (Homo sapiens) (UniProt Q92918)
[21] = biological target: Sodium-dependent noradrenaline transporter (Homo sapiens, UniProt P23975); conditions: Compound concentration 10.0 uM
[22] = biological target: Mitogen-activated protein kinase 12 (Homo sapiens) (UniProt P53778)
Chain of Mitogen-activated protein kinase 12 (Homo sapiens) (P53778 whole entry): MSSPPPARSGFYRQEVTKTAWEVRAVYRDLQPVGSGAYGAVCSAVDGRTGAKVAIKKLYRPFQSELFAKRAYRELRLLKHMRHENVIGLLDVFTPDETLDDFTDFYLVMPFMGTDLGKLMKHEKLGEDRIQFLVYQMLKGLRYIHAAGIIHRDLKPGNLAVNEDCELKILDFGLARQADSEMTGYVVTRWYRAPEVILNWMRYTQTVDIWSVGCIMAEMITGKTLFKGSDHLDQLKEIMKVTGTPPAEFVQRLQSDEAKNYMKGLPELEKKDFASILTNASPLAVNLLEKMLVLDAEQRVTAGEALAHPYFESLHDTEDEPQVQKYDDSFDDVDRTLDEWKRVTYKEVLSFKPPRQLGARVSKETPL

[23] = biological target: Megakaryocyte-associated tyrosine-protein kinase (Homo sapiens) (UniProt P42679)
[24] = system: Receptor-type tyrosine-protein kinase FLT3 (Homo sapiens), P36888 [N841I]
[25] = biological target: Serine/threonine-protein kinase WNK4 (Homo sapiens) (UniProt Q96J92)
Chain of Serine/threonine-protein kinase WNK4 (Homo sapiens) (Q96J92 whole entry): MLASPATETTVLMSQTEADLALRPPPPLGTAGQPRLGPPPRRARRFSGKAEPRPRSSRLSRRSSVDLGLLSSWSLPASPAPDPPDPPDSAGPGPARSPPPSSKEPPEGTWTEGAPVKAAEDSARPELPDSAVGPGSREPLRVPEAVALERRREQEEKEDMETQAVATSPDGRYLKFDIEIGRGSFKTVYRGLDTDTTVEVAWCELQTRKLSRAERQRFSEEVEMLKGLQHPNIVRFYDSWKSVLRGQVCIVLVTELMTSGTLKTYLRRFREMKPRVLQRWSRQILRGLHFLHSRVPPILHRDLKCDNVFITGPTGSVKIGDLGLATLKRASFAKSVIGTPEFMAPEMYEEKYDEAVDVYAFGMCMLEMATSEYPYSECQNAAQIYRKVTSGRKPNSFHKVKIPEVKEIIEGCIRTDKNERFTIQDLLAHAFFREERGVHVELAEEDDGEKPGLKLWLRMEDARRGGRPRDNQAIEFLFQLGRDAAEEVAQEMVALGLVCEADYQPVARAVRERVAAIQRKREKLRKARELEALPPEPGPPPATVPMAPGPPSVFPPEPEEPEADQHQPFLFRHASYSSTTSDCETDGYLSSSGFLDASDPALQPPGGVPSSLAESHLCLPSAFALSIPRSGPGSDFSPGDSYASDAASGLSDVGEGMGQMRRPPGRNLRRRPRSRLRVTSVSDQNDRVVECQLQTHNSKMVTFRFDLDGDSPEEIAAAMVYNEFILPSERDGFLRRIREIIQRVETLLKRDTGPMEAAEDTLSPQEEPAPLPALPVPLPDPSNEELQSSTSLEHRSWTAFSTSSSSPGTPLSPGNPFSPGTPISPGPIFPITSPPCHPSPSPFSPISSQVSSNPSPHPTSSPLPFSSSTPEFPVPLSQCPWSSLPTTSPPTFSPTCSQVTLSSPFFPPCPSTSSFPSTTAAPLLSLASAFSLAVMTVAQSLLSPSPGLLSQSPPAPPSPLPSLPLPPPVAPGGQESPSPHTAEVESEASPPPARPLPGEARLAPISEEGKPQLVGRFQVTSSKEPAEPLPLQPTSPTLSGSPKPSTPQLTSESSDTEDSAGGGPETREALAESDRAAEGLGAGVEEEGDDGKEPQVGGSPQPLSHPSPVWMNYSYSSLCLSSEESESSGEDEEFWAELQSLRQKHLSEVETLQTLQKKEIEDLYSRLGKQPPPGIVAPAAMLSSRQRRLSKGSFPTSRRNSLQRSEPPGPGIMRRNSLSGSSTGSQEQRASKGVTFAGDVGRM

[26] = biological target: Proto-oncogene tyrosine-protein kinase receptor Ret (Homo sapiens) (UniProt P07949)
[27] = biological target: Mast/stem cell growth factor receptor Kit (Homo sapiens) (UniProt P10721)
[28] = biological target: MAP kinase-activated protein kinase 5 (Homo sapiens) (UniProt Q8IW41)
[29] = biological target: Serine/threonine-protein kinase Nek9 (Homo sapiens) (UniProt Q8TD19)
[30] = biological target: Serine/threonine-protein kinase Chk1 (Homo sapiens) (UniProt O14757)
Chain of Serine/threonine-protein kinase Chk1 (Homo sapiens) (O14757 whole entry): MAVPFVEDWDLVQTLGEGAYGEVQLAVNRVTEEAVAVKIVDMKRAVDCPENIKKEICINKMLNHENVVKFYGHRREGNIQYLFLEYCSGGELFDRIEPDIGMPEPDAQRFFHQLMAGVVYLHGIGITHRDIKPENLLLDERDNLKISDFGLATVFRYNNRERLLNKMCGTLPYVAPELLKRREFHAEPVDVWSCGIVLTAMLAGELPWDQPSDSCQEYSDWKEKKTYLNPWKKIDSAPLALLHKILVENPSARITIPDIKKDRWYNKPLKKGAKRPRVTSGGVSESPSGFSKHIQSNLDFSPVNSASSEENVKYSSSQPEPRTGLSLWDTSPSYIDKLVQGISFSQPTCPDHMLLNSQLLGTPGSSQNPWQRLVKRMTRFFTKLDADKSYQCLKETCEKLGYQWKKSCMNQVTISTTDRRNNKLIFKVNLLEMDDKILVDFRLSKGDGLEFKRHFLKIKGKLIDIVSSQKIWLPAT

[31] = biological target: Dual specificity mitogen-activated protein kinase kinase 7 (Homo sapiens) (UniProt O14733)
[32] = biological target: Maternal embryonic leucine zipper kinase (Homo sapiens) (UniProt Q14680)
[33] = biological target: Serine/threonine-protein kinase Sgk1 (Homo sapiens) (UniProt O00141)
[34] = biological target: Tyrosine-protein kinase ABL2 (Homo sapiens) (UniProt P42684)
[35] = biological target: SRSF protein kinase 2 (Homo sapiens) (UniProt P78362)
[36] = biological target: Serine/threonine-protein kinase TAO1 (Homo sapiens) (UniProt Q7L7X3)
[37] = biological target: Cyclin-dependent kinase-like 2 (Homo sapiens) (UniProt Q92772)
Chain of Cyclin-dependent kinase-like 2 (Homo sapiens) (Q92772 whole entry): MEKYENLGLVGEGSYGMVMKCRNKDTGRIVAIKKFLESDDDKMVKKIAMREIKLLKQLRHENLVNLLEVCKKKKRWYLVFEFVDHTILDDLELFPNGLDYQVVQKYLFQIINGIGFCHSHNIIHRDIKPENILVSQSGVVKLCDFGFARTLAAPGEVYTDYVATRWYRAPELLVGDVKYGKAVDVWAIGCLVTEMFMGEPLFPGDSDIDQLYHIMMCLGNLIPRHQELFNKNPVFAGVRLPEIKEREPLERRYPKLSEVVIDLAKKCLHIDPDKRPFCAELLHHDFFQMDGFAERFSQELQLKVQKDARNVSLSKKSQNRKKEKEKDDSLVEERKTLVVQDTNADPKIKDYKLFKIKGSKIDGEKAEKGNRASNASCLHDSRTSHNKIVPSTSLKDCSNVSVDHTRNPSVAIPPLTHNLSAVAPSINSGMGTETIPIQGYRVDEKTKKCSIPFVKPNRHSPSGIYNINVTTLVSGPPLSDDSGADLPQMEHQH

[38] = biological target: Leucine-rich repeat serine/threonine-protein kinase 2 (Homo sapiens) (UniProt Q5S007)
[39] = biological target: Serine/threonine-protein kinase BRSK1 (Homo sapiens) (UniProt Q8TDC3)
[40] = biological target: Myosin light chain kinase, smooth muscle (Homo sapiens) (UniProt Q15746)
[41] = system: ALK tyrosine kinase receptor (Homo sapiens), Q9UM73 [C1156Y]
[42] = biological target: Dual specificity protein kinase CLK4 (Homo sapiens) (UniProt Q9HAZ1)
Chain of Dual specificity protein kinase CLK4 (Homo sapiens) (Q9HAZ1 whole entry, looked up): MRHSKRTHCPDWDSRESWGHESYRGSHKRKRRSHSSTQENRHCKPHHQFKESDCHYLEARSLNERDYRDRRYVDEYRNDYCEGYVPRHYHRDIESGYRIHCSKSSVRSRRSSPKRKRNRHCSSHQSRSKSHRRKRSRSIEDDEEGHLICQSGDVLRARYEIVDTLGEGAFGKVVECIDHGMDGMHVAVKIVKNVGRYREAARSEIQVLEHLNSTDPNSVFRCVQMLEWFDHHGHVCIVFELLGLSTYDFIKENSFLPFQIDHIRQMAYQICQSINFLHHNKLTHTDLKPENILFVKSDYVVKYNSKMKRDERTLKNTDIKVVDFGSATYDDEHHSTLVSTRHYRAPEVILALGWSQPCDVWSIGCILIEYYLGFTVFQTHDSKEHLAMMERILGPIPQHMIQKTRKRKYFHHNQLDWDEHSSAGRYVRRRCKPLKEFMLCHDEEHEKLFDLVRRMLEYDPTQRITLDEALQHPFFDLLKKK

[43] = biological target: Myosin light chain kinase (Homo sapiens) (UniProt Q32MK0)
[44] = biological target: Serine/threonine-protein kinase WNK1 (Homo sapiens) (UniProt Q9H4A3)
[45] = biological target: Kappa-type opioid receptor (Homo sapiens, UniProt P41145); assay: GPCRScan assay: inhibition of KOR; set-up: radioligand conc. used [nm] 0.6 – 1.2, parental cells stable HEK
Chain of Kappa-type opioid receptor (P41145 whole entry): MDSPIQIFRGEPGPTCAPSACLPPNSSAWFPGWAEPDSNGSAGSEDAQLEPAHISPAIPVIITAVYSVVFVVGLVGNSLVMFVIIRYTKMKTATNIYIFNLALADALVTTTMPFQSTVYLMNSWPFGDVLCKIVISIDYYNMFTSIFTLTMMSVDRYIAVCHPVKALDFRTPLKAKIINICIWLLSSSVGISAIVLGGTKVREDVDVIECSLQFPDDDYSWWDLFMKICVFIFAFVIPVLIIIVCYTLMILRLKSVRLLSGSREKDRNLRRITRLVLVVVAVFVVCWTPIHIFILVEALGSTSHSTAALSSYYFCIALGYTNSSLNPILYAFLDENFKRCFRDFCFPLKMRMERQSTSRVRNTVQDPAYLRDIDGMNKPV

[46] = Compound concentration 100.0 nM
[47] = Compound concentration 1000.0 nM

Cc1cc(C)c(-n2ccn3nc(-c4cccnc4)cc23)cc1NC(=O)c1cc(C#N)cc(S(F)(F)(F)(F)F)c1 [BAY-826]
residual activity [1, 46]: 84.5% | residual activity [2, 46]: 95.6% | residual activity [3, 46]: 95.6% | residual activity [4, 46]: 26.1% | residual activity [5, 46]: 0% | residual activity [6, 46]: 78.3% | residual activity [7, 46]: 88.9% | residual activity [8, 46]: 83.2% | residual activity [9, 46]: 75.9% | residual activity [10, 46]: 80.1% | residual activity [11, 46]: 67.3% | residual activity [12, 46]: 89.4% | residual activity [13, 46]: 100% | inhibition [14]: -7.91% | residual activity [15, 46]: 84.6% | residual activity [16, 46]: 83.9% | inhibition [17]: 34.5% | residual activity [18, 46]: 89.4% | residual activity [19, 46]: 98.2% | residual activity [20, 46]: 100% | inhibition [21]: 1.95% | residual activity [22, 46]: 61.2% | residual activity [23, 46]: 80.4% | residual activity [24, 46]: 95.3% | residual activity [25, 46]: 100% | residual activity [26, 46]: 82% | residual activity [27, 46]: 44.5% | residual activity [28, 46]: 91.7% | residual activity [29, 46]: 72.2% | residual activity [30, 46]: 86% | residual activity [31, 46]: 70.8% | residual activity [32, 46]: 100% | residual activity [33, 46]: 100% | residual activity [34, 46]: 67.8% | residual activity [35, 46]: 60.1% | residual activity [36, 46]: 45.2% | residual activity [37, 46]: 75.6% | residual activity [38, 46]: 83.5% | residual activity [39, 46]: 84% | residual activity [40, 46]: 57.7% | residual activity [41, 46]: 76.6% | residual activity [42, 46]: 93.3% | residual activity [43, 46]: 100% | residual activity [44, 46]: 97.3% | Ki ([45]; read-out: Ki): 125 nM | Ki ([45]; read-out: pKi (converted)): 112 nM

Cc1cc(NC(=O)c2cccc(S(F)(F)(F)(F)F)c2)cc(-n2ccn3nc(-c4cccnc4)cc23)c1 [BAY-309]
residual activity [1, 47]: 100% | residual activity [2, 47]: 90.7% | residual activity [3, 47]: 100% | residual activity [4, 47]: 100% | residual activity [5, 47]: 100% | residual activity [6, 47]: 90% | residual activity [7, 47]: 82% | residual activity [8, 47]: 100% | residual activity [9, 47]: 100% | residual activity [10, 47]: 100% | residual activity [11, 47]: 87.9% | residual activity [12, 47]: 59.3% | residual activity [13, 47]: 100% | inhibition [14]: -5.04% | residual activity [15, 47]: 100% | residual activity [16, 47]: 100% | inhibition [17]: 66% | residual activity [18, 47]: 100% | residual activity [19, 47]: 74.3% | residual activity [20, 47]: 82.1% | inhibition [21]: 62.9% | residual activity [22, 47]: 41.7% | residual activity [23, 47]: 100% | residual activity [24, 47]: 100% | residual activity [25, 47]: 100% | residual activity [26, 47]: 100% | residual activity [27, 47]: 89.5% | residual activity [28, 47]: 100% | residual activity [29, 47]: 100% | residual activity [30, 47]: 72% | residual activity [31, 47]: 89.7% | residual activity [32, 47]: 100% | residual activity [33, 47]: 81.3% | residual activity [34, 47]: 100% | residual activity [35, 47]: 100% | residual activity [36, 47]: 100% | residual activity [37, 47]: 100% | residual activity [38, 47]: 74.6% | residual activity [39, 47]: 100% | residual activity [40, 47]: 91.8% | residual activity [41, 47]: 100% | residual activity [42, 47]: 100% | residual activity [43, 47]: 100% | residual activity [44, 47]: 100% | Ki ([45]; read-out: Ki): 10000 nM
